Results on five compounds are retold here after US11040967B2, “TYK2 inhibitors, uses, and methods for production thereof” (Nimbus Lakshmi, Inc., priority 2017, dated 2021).

A short description of data set [1]: Dissolution Assay in Fasted Simulated Gastric Fluid. It counts as physicochemical. The following applies: Fasted Simulated Gastric Fluid (FaSSGF), 37° C. The protocol: The dissolution bath was filled with 900 mL of media for testing, the bath temperature held at 37° C., the rotation rate of the apparatus was 50 rpm, the draw point for the sampling probe was set exactly halfway between the surface of the media and the surface of the disc. The test article (0.4 g) was compressed into a disc using a Woods apparatus. The sampling time points were 10, 30, 60, 90, 120, 150 & 180. The samples were analysed by HPLC for concentration against a sample preparation of known concentration (ca. 0.5 mg/ml). Dissolution rate was derived from the curve of concentration against time.

Data set [2] in a line: Solid form stability of Compound 1 mesylate forms. It counts as physicochemical.

In turn, `O=C1NCc2nc(-c3c(F)cccc3F)cc(Nc3ccc(C(=O)N4CCOCC4)cc3)c21` [Compound 9] gave a dissolution rate in data set [1] of 21.2 μg/cm^2/min.

Take `CS(=O)(=O)O.O=C1NCc2nc(-c3c(F)cccc3F)cc(Nc3ccc(C(=O)N4CCCC4)cc3)c21` [Form III]: the solid form stability result in data set [2] (upon drying under ambient conditions) is reported as “transition to Form IV”.

For the compound `CS(=O)(=O)O.O=C1NCc2nc(-c3c(F)cccc3F)cc(Nc3ccc(C(=O)N4CCCC4)cc3)c21` [Form IV], the solid form stability result in data set [2] (ambient conditions) is on record as “stable at ambient conditions”.

In the case of `CS(=O)(=O)O.O=C1NCc2nc(-c3c(F)cccc3F)cc(Nc3ccc(C(=O)N4CCCC4)cc3)c21` [Form V], in data set [2] (upon grinding), the solid form stability result is on record as “transition to Form I”.

In turn, `O=C1NCc2nc(-c3c(F)cccc3F)cc(Nc3ccc(C(=O)N4CCCC4)cc3)c21` [Compound 1] showed a dissolution rate in data set [1] of 57.5 μg/cm^2/min.
